In ChEMBL document CHEMBL3880441, “Irreversible covalent inhibitors of the GTPASE K-RAS G12C” (2014) one finds Activity data, which are given here for 32 molecules.

The assay has as its system GTPase KRas (Homo sapiens), P01116 [G12C]. Briefly: Binding affinity to His-tagged KRAS (1 to 169 residues) G12C mutant (unknown origin) at 10 to 100 uM after 24 hrs by mass spectrometric method.

The molecule `C=CS(=O)(=O)NCCOc1cccc2ccccc12` showed an Activity of 10 to 15%.
Then `C=CS(=O)(=O)NC[C@H]1C[C@@H]2O[C@H](COCc3ccccc3)[C@@H](OCc3ccccc3)[C@@H]2O1`, with 10 to 15%; and `C=Cc1cccc(S(=O)(=O)NC[C@@H]2C[C@@H]3O[C@H](COCc4ccccc4)[C@@H](OCc4ccccc4)[C@@H]3O2)c1`, with more than 15%; and `C=CS(=O)(=O)NCCOc1ccc2ccccc2c1`, with 10 to 15%.
For `C=CC(=O)NC[C@@H]1C[C@@H]2O[C@H](COCc3ccccc3)[C@@H](OCc3ccccc3)[C@@H]2O1`, the Activity lay in the range of 0.5 to 5%.
Consider `C=Cc1cccc(S(=O)(=O)NCCOc2ccc3ccccc3c2)c1`, for which the Activity lay within 10 to 15%.
Then `C=CS(=O)(=O)NC[C@@H]1C[C@@H]2O[C@H](COCc3ccccc3)[C@@H](OCc3ccccc3)[C@@H]2O1`, with 10 to 15%; and `C=Cc1ccccc1S(=O)(=O)NC[C@H]1C[C@@H]2O[C@H](COCc3ccccc3)[C@@H](OCc3ccccc3)[C@@H]2O1`, with 10 to 15%; and `C=Cc1ccccc1S(=O)(=O)NC[C@H]1C[C@@H]2O[C@H](CO)[C@@H](OCc3ccccc3)[C@@H]2O1`, with 10 to 15%.
`C=CS(=O)(=O)NCCNc1cccc2ccccc12` showed an Activity of 10 to 15%.
The same measure for `C=Cc1ccccc1S(=O)(=O)NC[C@@H]1C[C@@H]2O[C@H](COCc3ccccc3)[C@@H](OCc3ccccc3)[C@@H]2O1`: 10 to 15%; for `C=CC(=O)NC[C@@H]1C[C@@H]2O[C@H](CO)[C@@H](OCc3ccccc3)[C@@H]2O1`: 0.5 to 5%.
The same measure for `C=Cc1ccccc1S(=O)(=O)NC[C@@H]1C[C@@H]2O[C@H](CO)[C@@H](OCc3ccccc3)[C@@H]2O1`: more than 15%.
In turn, `C=Cc1ccccc1S(=O)(=O)NCCOc1ccc2ccccc2c1` returned an Activity of 5 to 10%.
As to `C=Cc1ccc(S(=O)(=O)NC[C@@H]2C[C@@H]3O[C@H](CO)[C@@H](OCc4ccccc4)[C@@H]3O2)cc1`, the Activity is 5 to 10%.
Molecule `C=Cc1ccc(S(=O)(=O)NCCNc2ccc3ccccc3c2)cc1` showed an Activity of 5 to 10%.
Then `C=Cc1ccccc1S(=O)(=O)NCCOc1cccc2ccccc12`, with 10 to 15%; and `C=Cc1cccc(S(=O)(=O)NCCOc2cccc3ccccc23)c1`, with 5 to 10%.
The same measure for `C=Cc1cccc(S(=O)(=O)NC[C@H]2C[C@@H]3O[C@H](CO)[C@@H](OCc4ccccc4)[C@@H]3O2)c1`: 5 to 10%.
Turning to `C=CS(=O)(=O)NC[C@H]1C[C@@H]2O[C@H](CO)[C@@H](OCc3ccccc3)[C@@H]2O1`, the Activity was 5 to 10%.
As to `C=Cc1ccc(S(=O)(=O)NC[C@H]2C[C@@H]3O[C@H](CO)[C@@H](OCc4ccccc4)[C@@H]3O2)cc1`, the Activity was in the range of 10 to 15%.
Molecule `C=Cc1ccc(S(=O)(=O)NC[C@H]2C[C@@H]3O[C@H](COCc4ccccc4)[C@@H](OCc4ccccc4)[C@@H]3O2)cc1` came in with an Activity of more than 15%.
`C=Cc1cccc(S(=O)(=O)NC[C@H]2C[C@@H]3O[C@H](COCc4ccccc4)[C@@H](OCc4ccccc4)[C@@H]3O2)c1` returned an Activity of 5 to 10%.
As for `C=Cc1ccccc1S(=O)(=O)NCCNc1ccc2ccccc2c1`, the Activity fell in the range of 10 to 15%.
The same measure for `C=Cc1ccc(S(=O)(=O)NCCNc2cccc3ccccc23)cc1`: 10 to 15%.
Then `C=Cc1ccc(S(=O)(=O)NC[C@@H]2C[C@@H]3O[C@H](COCc4ccccc4)[C@@H](OCc4ccccc4)[C@@H]3O2)cc1`, with 10 to 15%; and `C=CC(=O)NC[C@H]1C[C@@H]2O[C@H](CO)[C@@H](OCc3ccccc3)[C@@H]2O1`, with 0.5 to 5%; and `C=CS(=O)(=O)NCCNc1ccc2ccccc2c1`, with 5 to 10%.
`C=Cc1cccc(S(=O)(=O)NC[C@@H]2C[C@@H]3O[C@H](CO)[C@@H](OCc4ccccc4)[C@@H]3O2)c1` came in with an Activity of 10 to 15%.
`C=Cc1ccccc1S(=O)(=O)NCCNc1cccc2ccccc12` registered an Activity of more than 15%.
`C=CC(=O)NC[C@H]1C[C@@H]2O[C@H](COCc3ccccc3)[C@@H](OCc3ccccc3)[C@@H]2O1` returned an Activity of 0.5 to 5%.
Molecule `C=Cc1ccc(S(=O)(=O)NCCOc2ccc3ccccc3c2)cc1` registered an Activity of 10 to 15%.
